Like-named read-outs stand apart in the source and are kept apart here.
Legend:
[1] = ref PharmaPendium, cited from earlier work
[2] = tested on: hiPSC-derived neurons co-cultured with human primary astrocytes in 2D; experiment: Ca2+ transient oscillation assay (FDSS), 2D co-culture; assay type: cell-based; conditions: Homo sapiens, 1 h, 60 min
Procedure, shortened: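 Cultures were 10,000 CW50065 hiPSC excitatory neurons plus 2500 primary human astrocytes per well. Recordings used Cal-520 dye in HBSS/HEPES/glucose at 37 °C, with a 470/540 nm read at 2 Hz. Oscillations were stabilized with 0.04% DMSO, read for 20 min, then read again 60 min after compound addition (final DMSO 0.1%).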

[3] = tested on: hiPSC-derived neurons co-cultured with human primary astrocytes in 3D; experiment: Ca2+ transient oscillation assay (FDSS), 3D spheroids; assay type: cell-based; conditions: 60 min
Procedure, shortened: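 Fura-2 fluorescence was read twice for 20 min each: a baseline 10 min after 0.04% DMSO, and again 60 min after compound addition at nominal final concentration. The 3D co-cultures (1:1 hiPSC neurons from a donor and human astrocytes, 8000 each) matured 5 weeks in BrainPhys medium after a 1-week differentiation.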

[4] = read-out: Area under the curve - 2D Mean
[5] = read-out: Peak amplitude - 2D Mean
[6] = read-out: Peak-to-peak interval - 2D Mean

For `CN(C)CCCN1c2ccccc2Sc2ccc(Cl)cc21` [Chlorpromazine], the “Free Cmax” value ([1]; Table 1, peak plasma concentration in men, free therapeutic Cmax) is given as 50 to 150 nM, the “Free Cmax” value ([1]; Table 2, highest plasma concentration in humans after the therapeutic dose) is given as 50 to 150 nM and the activation at 0.11 µM [2, 4] is given as 26.5%. The activation at 0.11 µM ([2]; read-out: Peak Number—2D Mean) was -27%, the activation at 0.11 µM [2, 5] was 8.7% and the activation at 0.11 µM ([2]; read-out: Peak width - 2D Mean) was 18%. It also gave an activation at 0.11 µM [2, 6] of 47.2%, an activation at 0.33 µM [2, 4] of 36% and an activation at 0.33 µM ([2]; read-out: Peak Number—2D Mean) of -29.5%. For the same molecule, the activation at 0.33 µM [2, 5] was 4%, the activation at 0.33 µM ([2]; read-out: Peak width - 2D Mean) was 38.5% and the activation at 0.33 µM [2, 6] was 48%. For the same molecule, the activation at 1 µM [2, 4] was 10.7%, the activation at 1 µM ([2]; read-out: Peak Number—2D Mean) was -59.8% and the activation at 1 µM [2, 5] was -4.3%. It also gave an activation at 1 µM ([2]; read-out: Peak width - 2D Mean) of 13.8%, an activation at 1 µM [2, 6] of 151% and an activation at 3 µM [2, 4] of -100%. For the same molecule, the activation at 3 µM ([2]; read-out: Peak Number—2D Mean) was -100%, the activation at 3 µM [2, 5] was -100% and the activation at 3 µM ([2]; read-out: Peak width - 2D Mean) was -100%. The activation at 3 µM [2, 6] was -100%, the “Area under the curve - 3D Mean” value ([3]; 0.11 µM) was 128.5 % change from baseline and the “Peak Number—3D Mean” value ([3]; 0.11 µM) was 6.5 % change from baseline. The “Peak amplitude - 3D Mean” value ([3]; 0.11 µM) was 96.7 % change from baseline, the “Peak width - 3D Mean” value ([3]; 0.11 µM) was 13.3 % change from baseline and the “Peak-to-peak interval - 3D Mean” value ([3]; 0.11 µM) was 10.0 % change from baseline. The “Area under the curve - 3D Mean” value ([3]; 0.33 µM) was 129.9 % change from baseline, the “Peak Number—3D Mean” value ([3]; 0.33 µM) was −2.6 % change from baseline and the “Peak amplitude - 3D Mean” value ([3]; 0.33 µM) was 100.7 % change from baseline. The “Peak width - 3D Mean” value ([3]; 0.33 µM) was 13.6 % change from baseline, the “Peak-to-peak interval - 3D Mean” value ([3]; 0.33 µM) was 12.5 % change from baseline and the “Area under the curve - 3D Mean” value ([3]; 1 µM) was 132.1 % change from baseline. For the same molecule, the “Peak Number—3D Mean” value ([3]; 1 µM) was 11.5 % change from baseline, the “Peak amplitude - 3D Mean” value ([3]; 1 µM) was 102.4 % change from baseline and the “Peak width - 3D Mean” value ([3]; 1 µM) was 13.0 % change from baseline. The “Peak-to-peak interval - 3D Mean” value ([3]; 1 µM) was −9.6 % change from baseline, the “Area under the curve - 3D Mean” value ([3]; 3 µM) was 131.9 % change from baseline and the “Peak Number—3D Mean” value ([3]; 3 µM) was −4.8 % change from baseline. The “Peak amplitude - 3D Mean” value ([3]; 3 µM) was 98.4 % change from baseline, the “Peak width - 3D Mean” value ([3]; 3 µM) was 16.6 % change from baseline and the “Peak-to-peak interval - 3D Mean” value ([3]; 3 µM) was 6.0 % change from baseline.

From article PMC10046961, “High-Throughput Screening Assay for Detecting Drug-Induced Changes in Synchronized Neuronal Oscillations and Potential Seizure Risk Based on Ca^2+ Fluorescence Measurements in Human Induced Pluripotent Stem Cell (hiPSC)-Derived Neuronal 2D and 3D Cultures” (Cells, 2023)
